Results reported in ChEMBL document CHEMBL3400123, “Discovery of 1,3-dihydro-2,1,3-benzothiadiazole 2,2-dioxide analogs as new RORC modulators” (Bioorg Med Chem Lett, 2015).
≈ marks a conversion by molar mass, not a printed value.

Experiment: Solubility in pH 6.8 buffer by high throughput solubility assay
Type: physicochemical

solubility	Compound
5.7 µg/mL (≈ 11.5 µM)	O=C(CCCN1c2ccccc2N(Cc2ccc(C(O)C(F)(F)F)cc2)S1(=O)=O)N1CCCC1 (stereo not drawn)
0.6 µg/mL (≈ 1.28 µM)	CCC(CC)c1ccc(CN2c3ccccc3N(CCCC(=O)N3CCCC3)S2(=O)=O)cc1
0.45 µg/mL (≈ 0.796 µM)	O=C(CCCN1c2ccccc2N(Cc2ccc(C(O)(C(F)(F)F)C(F)(F)F)cc2)S1(=O)=O)N1CCCC1
